Experimental findings from patent US12023315B2, “Pharmaceutical compositions and methods utilizing neostigmine and an NK-1 antagonist for treating myasthenia gravis” (priority 2017, dated 2024) are described below.

Each structure is given as a SMILES string.

The subject of the assay is gastro-intestinal side effects of neostigmine in human subjects. The assay can be described thus: Phase I single-blind, placebo-controlled study: single oral neostigmine bromide with or without single oral aprepitant. Type of assay: in vivo. Particulars: human volunteers; single oral aprepitant (up to 125 mg) co-administered with first intolerable oral dose (FID) of neostigmine bromide; follow-up up to 8 hours. Here is the method:
The ability of the NK1-antagonists for preventing the adverse effects of orally administered neostigmine bromide in humans is tested.
A Phase I study is conducted in human subjects receiving a single oral dose of neostigmine bromide with or without a single oral dose of aprepitant hydrochloride dihydrate, as a representative NK1-antagonist. The study is a single center, single-blind, placebo-controlled study.
To be enrolled in the study, participants are to meet the following inclusion/exclusion criteria:
Key Inclusion Criteria • 1. Male or female volunteers between the ages of 18 and 60 years inclusive are required to be in good health, to refrain from consuming xanthine, quinine and caffeine containing beverages, and to refrain from prolonged intensive physical exercise during the study conduct. • 2. […] Subjects had to be in good health according to their medical history including personal and family psychiatric history, physical examination, ECG, vital signs, and laboratory tests. […] Subjects had to be able to swallow multiple pills simultaneously.
Key Exclusion Criteria • 1. Any clinically relevant acute or chronic disease which could interfere with the subjects' safety during the trial, expose them to undue risk, or interfere with the study objectives. • 2. […]

Consider `C[C@@H](O[C@H]1OCCN(Cc2nc(=O)[nH][nH]2)[C@H]1c1ccc(F)cc1)c1cc(C(F)(F)F)cc(C(F)(F)F)c1` [aprepitant, 5-[[(2R,3S)-2-[(1R)-1-[3,5-bis(trifluoromethyl)phenyl]ethoxy]-3-(4-fluorophenyl)-4-morpholinyl]methyl]-1,2-dihydro-3H-1,2,4-triazol-3-one], for which the “occurrence of gastro-intestinal AEs with neostigmine” value is “prevents or attenuates the occurrence of gastro-intestinal AEs”.
